Data reported in patent publication US20050112573A1, “Method of detecting toxic substance” (priority 2001, published 2005).

Test system: yeast genes (level of expressed mRNA)
Assay: DNA chip analysis of expressed mRNA of yeast genes after 2 h culture with a toxic chemical substance
Assay type: cell-based, Saccharomyces cerevisiae S288C
In short: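 Values are treated-to-control fluorescence ratios from a whole-yeast-genome DNA chip (65° C, over 12 h hybridization) using Cy3/Cy5-labelled cDNA from mRNA. Log-phase S288C cells in YPD at 25° C were exposed 2 h to a toxicant at sublethal, growth-inhibiting concentration.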

CCCCC[C@H](O)CC(=O)CCc1ccc(O)c(OC)c1 [(13), gingerol]
level of expressed mRNA in the presence of chemical substance/in its absence (gene YGR282C): 1.2 | The level of expressed mRNA in the presence of chemical substance/absence: YGR293C (gene YGR293C): 0.7 | The level of expressed mRNA in the presence of chemical substance/absence: YHL006C (gene YHL006C): 1.1 | The level of expressed mRNA in the presence of chemical substance/absence: YHL021C (gene YHL021C): 2.6 | The level of expressed mRNA in the presence of chemical substance/absence: YHL037C (gene YHL037C): 1.0 | level of expressed mRNA in the presence of chemical substance/in its absence (gene YHR037W): 1.1 | The level of expressed mRNA in the presence of chemical substance/absence: YHR083W (gene YHR083W): 1.1 | level of expressed mRNA in the presence of chemical substance/in its absence (gene YHR092C): 0.5 | The level of expressed mRNA in the presence of chemical substance/absence: YHR095W (gene YHR095W): 0.7 | The level of expressed mRNA in the presence of chemical substance/absence: YHR105W (gene YHR105W): 1.4 | The level of expressed mRNA in the presence of chemical substance/absence: YHR134W (gene YHR134W): 1.2 | level of expressed mRNA in the presence of chemical substance/in its absence (gene YHR137W): 0.6 | The level of expressed mRNA in the presence of chemical substance/absence: YHR180W (gene YHR180W): 1.3 | The level of expressed mRNA in the presence of chemical substance/absence: YHR181W (gene YHR181W): 0.7 | level of expressed mRNA in the presence of chemical substance/in its absence (gene YHR190W): 1.7 | level of expressed mRNA in the presence of chemical substance/in its absence (gene YIL033C): 2.5 | The level of expressed mRNA in the presence of chemical substance/absence: YIL108W (gene YIL108W): 1.3 | The level of expressed mRNA in the presence of chemical substance/absence: YIL127C (gene YIL127C): 0.4 | level of expressed mRNA in the presence of chemical substance/in its absence (gene YIL154C): 1.7 | The level of expressed mRNA in the presence of chemical substance/absence: YIL165C (gene YIL165C): 1.5 | level of expressed mRNA in the presence of chemical substance/in its absence (gene YIL167W): 1.2 | level of expressed mRNA in the presence of chemical substance/in its absence (gene YIR035C): 1.1 | The level of expressed mRNA in the presence of chemical substance/absence: YJL017W (gene YJL017W): 1.5 | The level of expressed mRNA in the presence of chemical substance/absence: YJL032W (gene YJL032W): 1.4 | The level of expressed mRNA in the presence of chemical substance/absence: YJL037W (gene YJL037W): 1.1 | The level of expressed mRNA in the presence of chemical substance/absence: YJL049W (gene YJL049W): 0.9 | level of expressed mRNA in the presence of chemical substance/in its absence (gene YJL088W): 1.0 | The level of expressed mRNA in the presence of chemical substance/absence: YJL097W (gene YJL097W): 0.7 | level of expressed mRNA in the presence of chemical substance/in its absence (gene YJL132W): 1.3 | level of expressed mRNA in the presence of chemical substance/in its absence (gene YJL196C): 0.6 | The level of expressed mRNA in the presence of chemical substance/absence: YJR030C (gene YJR030C): 0.7 | The level of expressed mRNA in the presence of chemical substance/absence: YJR044C (gene YJR044C): 2.0 | level of expressed mRNA in the presence of chemical substance/in its absence (gene YJR142W): 1.6 | level of expressed mRNA in the presence of chemical substance/in its absence (gene YJR148W): 1.1 | level of expressed mRNA in the presence of chemical substance/in its absence (gene YJR159W): 2.1 | The level of expressed mRNA in the presence of chemical substance/absence: YKL051W (gene YKL051W): 1.2 | The level of expressed mRNA in the presence of chemical substance/absence: YKL059C (gene YKL059C): 1.3 | level of expressed mRNA in the presence of chemical substance/in its absence (gene YKL067W): 1.7 | The level of expressed mRNA in the presence of chemical substance/absence: YKL090W (gene YKL090W): 0.8 | The level of expressed mRNA in the presence of chemical substance/absence: YKL094W (gene YKL094W): 1.7 | The level of expressed mRNA in the presence of chemical substance/absence: YKL097C (gene YKL097C): 0.9 | The level of expressed mRNA in the presence of chemical substance/absence: YKL100C (gene YKL100C): 1.3 | level of expressed mRNA in the presence of chemical substance/in its absence (gene YKR039W): 1.3 | The level of expressed mRNA in the presence of chemical substance/absence: YKR040C (gene YKR040C): 0.6 | The level of expressed mRNA in the presence of chemical substance/absence: YLR097C (gene YLR097C): 1.1 | level of expressed mRNA in the presence of chemical substance/in its absence (gene YLR142W): 1.2 | level of expressed mRNA in the presence of chemical substance/in its absence (gene YLR180W): 0.6 | The level of expressed mRNA in the presence of chemical substance/absence: YLR226W (gene YLR226W): 0.7 | level of expressed mRNA in the presence of chemical substance/in its absence (gene YLR273C): 1.7 | level of expressed mRNA in the presence of chemical substance/in its absence (gene YLR300W): 0.2 | level of expressed mRNA in the presence of chemical substance/in its absence (gene YLR307W): 1.0 | The level of expressed mRNA in the presence of chemical substance/absence: YLR338W (gene YLR338W): 1.2 | The level of expressed mRNA in the presence of chemical substance/absence: YLR339C (gene YLR339C): 0.1 | The level of expressed mRNA in the presence of chemical substance/absence: YLR392C (gene YLR392C): 1.4 | The level of expressed mRNA in the presence of chemical substance/absence: YLR415C (gene YLR415C): 1.0 | The level of expressed mRNA in the presence of chemical substance/absence: YLR427W (gene YLR427W): 2.5 | The level of expressed mRNA in the presence of chemical substance/absence: YML013W (gene YML013W): 1.2 | The level of expressed mRNA in the presence of chemical substance/absence: YML029W (gene YML029W): 2.0 | The level of expressed mRNA in the presence of chemical substance/absence: YML041C (gene YML041C): 1.2 | The level of expressed mRNA in the presence of chemical substance/absence: YML079W (gene YML079W): 1.6 | level of expressed mRNA in the presence of chemical substance/in its absence (gene YML110C): 1.8 | The level of expressed mRNA in the presence of chemical substance/absence: YML118W (gene YML118W): 1.7 | The level of expressed mRNA in the presence of chemical substance/absence: YMR068W (gene YMR068W): 1.4 | The level of expressed mRNA in the presence of chemical substance/absence: YMR071C (gene YMR071C): 1.3 | level of expressed mRNA in the presence of chemical substance/in its absence (gene YMR105C): 3.3 | The level of expressed mRNA in the presence of chemical substance/absence: YMR114C (gene YMR114C): 1.1 | The level of expressed mRNA in the presence of chemical substance/absence: YMR115W (gene YMR115W): 1.3 | The level of expressed mRNA in the presence of chemical substance/absence: YMR160W (gene YMR160W): 1.6 | level of expressed mRNA in the presence of chemical substance/in its absence (gene YMR189W): 0.9 | The level of expressed mRNA in the presence of chemical substance/absence: YMR258C (gene YMR258C): 1.6 | level of expressed mRNA in the presence of chemical substance/in its absence (gene YMR271C): 3.6 | level of expressed mRNA in the presence of chemical substance/in its absence (gene YMR272C): 1.2 | level of expressed mRNA in the presence of chemical substance/in its absence (gene YMR296C): 0.9 | level of expressed mRNA in the presence of chemical substance/in its absence (gene YNL012W): 2.9 | The level of expressed mRNA in the presence of chemical substance/absence: YNL026W (gene YNL026W): 1.7 | level of expressed mRNA in the presence of chemical substance/in its absence (gene YNL037C): 1.9 | level of expressed mRNA in the presence of chemical substance/in its absence (gene YNL045W): 2.6 | The level of expressed mRNA in the presence of chemical substance/absence: YNL058C (gene YNL058C): 0.6 | The level of expressed mRNA in the presence of chemical substance/absence: YNL063W (gene YNL063W): 1.5 | level of expressed mRNA in the presence of chemical substance/in its absence (gene YNL104C): 2.1 | level of expressed mRNA in the presence of chemical substance/in its absence (gene YNL106C): 0.9 | level of expressed mRNA in the presence of chemical substance/in its absence (gene YNL130C): 1.9 | level of expressed mRNA in the presence of chemical substance/in its absence (gene YNL169C): 1.7 | The level of expressed mRNA in the presence of chemical substance/absence: YNL176C (gene YNL176C): 0.6 | The level of expressed mRNA in the presence of chemical substance/absence: YNL181W (gene YNL181W): 1.8 | The level of expressed mRNA in the presence of chemical substance/absence: YNL191W (gene YNL191W): 0.6 | The level of expressed mRNA in the presence of chemical substance/absence: YNL194C (gene YNL194C): 1.5 | The level of expressed mRNA in the presence of chemical substance/absence: YNL200C (gene YNL200C): 1.1 | The level of expressed mRNA in the presence of chemical substance/absence: YNL212W (gene YNL212W): 1.3 | level of expressed mRNA in the presence of chemical substance/in its absence (gene YNL231C): 2.9 | The level of expressed mRNA in the presence of chemical substance/absence: YNL253W (gene YNL253W): 1.1 | The level of expressed mRNA in the presence of chemical substance/absence: YNL265C (gene YNL265C): 2.0 | The level of expressed mRNA in the presence of chemical substance/absence: YNL276C (gene YNL276C): 1.5 | level of expressed mRNA in the presence of chemical substance/in its absence (gene YNL322C): 0.8 | level of expressed mRNA in the presence of chemical substance/in its absence (gene YNR002C): 2.1 | level of expressed mRNA in the presence of chemical substance/in its absence (gene YNR019W): 2.1 | level of expressed mRNA in the presence of chemical substance/in its absence (gene YNR033W): 3.8 | The level of expressed mRNA in the presence of chemical substance/absence: YNR051C (gene YNR051C): 2.1 | level of expressed mRNA in the presence of chemical substance/in its absence (gene YNR059W): 2.4 | The level of expressed mRNA in the presence of chemical substance/absence: YOL026C (gene YOL026C): 1.2 | The level of expressed mRNA in the presence of chemical substance/absence: YOL030W (gene YOL030W): 1.7 | level of expressed mRNA in the presence of chemical substance/in its absence (gene YOL058W): 1.2 | level of expressed mRNA in the presence of chemical substance/in its absence (gene YOL126C): 2.6 | level of expressed mRNA in the presence of chemical substance/in its absence (gene YOL143C): 1.2 | level of expressed mRNA in the presence of chemical substance/in its absence (gene YOL153C): 2.9 | level of expressed mRNA in the presence of chemical substance/in its absence (gene YOL157C): 1.4 | The level of expressed mRNA in the presence of chemical substance/absence: YOR022C (gene YOR022C): 1.7 | The level of expressed mRNA in the presence of chemical substance/absence: YOR087W (gene YOR087W): 1.2 | The level of expressed mRNA in the presence of chemical substance/absence: YOR088W (gene YOR088W): 0.4 | level of expressed mRNA in the presence of chemical substance/in its absence (gene YOR099W): 1.6 | level of expressed mRNA in the presence of chemical substance/in its absence (gene YOR130C): 2.1 | level of expressed mRNA in the presence of chemical substance/in its absence (gene YOR136W): 1.5 | The level of expressed mRNA in the presence of chemical substance/absence: YOR138C (gene YOR138C): 1.8 | The level of expressed mRNA in the presence of chemical substance/absence: YOR253W (gene YOR253W): 0.5
